Measured values: ChEMBL document CHEMBL4020831, “Discovery of GDC-0853: A Potent, Selective, and Noncovalent Bruton's Tyrosine Kinase Inhibitor in Early Clinical Development” (J Med Chem, 2018)
Converted amounts (≈) assume the structure as drawn. The source made the active and inactive calls. No cut-off for these calls is given here.

Legend:
Rattus norvegicus [1] = test: Time at which plasma concentration stays above IC70 for BTK autophosphorylation at Y223 in rat whole blood in Lewis rat collagen-induced arthritis model at 0.5 mg/kg, po qd measured during 24 hrs dosing
Rattus norvegicus [2] = test: Time at which plasma concentration stays above in vitro IC70 for BTK autophosphorylation at Y223 in rat whole blood in Lewis rat collagen-induced arthritis model at 1 to 16 mg/kg, po qd measured during 24 hrs dosing
Rattus norvegicus [3] = test: Antiinflammatory activity in Lewis rat collagen-induced arthritis model assessed as reduction in ankle diameter AUC at 0.5 mg/kg, po administered bid for 16 days relative to control; type: functional; conditions: 384 h
EGFR = EGFR (Homo sapiens, UniProt P00533); test: Inhibition of recombinant human cytoplasmic GST-tagged EGFR expressed in baculovirus at 1 uM by Z'-LYTE assay
Chain of EGFR (P00533 whole entry): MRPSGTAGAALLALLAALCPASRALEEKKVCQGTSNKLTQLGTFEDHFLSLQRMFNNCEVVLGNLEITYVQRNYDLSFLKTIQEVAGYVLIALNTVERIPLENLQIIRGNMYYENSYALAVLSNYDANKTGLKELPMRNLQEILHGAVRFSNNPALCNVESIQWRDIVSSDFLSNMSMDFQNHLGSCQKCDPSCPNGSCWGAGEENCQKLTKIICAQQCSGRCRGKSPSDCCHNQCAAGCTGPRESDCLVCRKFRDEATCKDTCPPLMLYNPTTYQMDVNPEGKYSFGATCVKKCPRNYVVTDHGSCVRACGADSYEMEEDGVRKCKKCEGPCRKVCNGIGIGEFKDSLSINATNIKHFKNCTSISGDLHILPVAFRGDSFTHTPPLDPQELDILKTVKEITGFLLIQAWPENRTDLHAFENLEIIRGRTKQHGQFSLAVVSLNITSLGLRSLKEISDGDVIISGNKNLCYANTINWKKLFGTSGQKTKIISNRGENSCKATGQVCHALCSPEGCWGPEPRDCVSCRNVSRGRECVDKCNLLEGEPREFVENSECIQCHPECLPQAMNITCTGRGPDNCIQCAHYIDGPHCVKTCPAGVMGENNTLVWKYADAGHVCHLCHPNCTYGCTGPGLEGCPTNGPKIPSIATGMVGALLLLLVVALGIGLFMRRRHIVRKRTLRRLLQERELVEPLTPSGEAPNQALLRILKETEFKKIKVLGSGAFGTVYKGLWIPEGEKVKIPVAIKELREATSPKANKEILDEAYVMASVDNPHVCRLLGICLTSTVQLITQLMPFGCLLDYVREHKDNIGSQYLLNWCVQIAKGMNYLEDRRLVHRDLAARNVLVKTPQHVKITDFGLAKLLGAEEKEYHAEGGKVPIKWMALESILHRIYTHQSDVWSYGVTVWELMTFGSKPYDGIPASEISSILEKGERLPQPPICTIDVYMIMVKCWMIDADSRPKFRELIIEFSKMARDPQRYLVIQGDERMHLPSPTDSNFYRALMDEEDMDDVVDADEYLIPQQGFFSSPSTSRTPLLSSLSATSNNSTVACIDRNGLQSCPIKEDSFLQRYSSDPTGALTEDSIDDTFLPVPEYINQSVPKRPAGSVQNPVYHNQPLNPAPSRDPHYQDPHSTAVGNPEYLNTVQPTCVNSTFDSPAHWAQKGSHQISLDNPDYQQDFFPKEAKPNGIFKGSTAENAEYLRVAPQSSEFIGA

Rattus norvegicus [4] = test: Antiinflammatory activity in Lewis rat collagen-induced arthritis model assessed as reduction in ankle inflammation at 0.06 to 16 mg/kg, po administered qd for 16 days; type: functional, organism-based
Cav1.2 = Cav1.2 (Homo sapiens, UniProt Q13936); test: Inhibition of human Cav1.2 expressed in CHO cells at 1 uM incubated for 3 to 5 mins by Qpatch clamp assay; type: cell-based; conditions: CHO cells expressing human Cav1.2
Chain of Cav1.2 (Q13936 whole entry): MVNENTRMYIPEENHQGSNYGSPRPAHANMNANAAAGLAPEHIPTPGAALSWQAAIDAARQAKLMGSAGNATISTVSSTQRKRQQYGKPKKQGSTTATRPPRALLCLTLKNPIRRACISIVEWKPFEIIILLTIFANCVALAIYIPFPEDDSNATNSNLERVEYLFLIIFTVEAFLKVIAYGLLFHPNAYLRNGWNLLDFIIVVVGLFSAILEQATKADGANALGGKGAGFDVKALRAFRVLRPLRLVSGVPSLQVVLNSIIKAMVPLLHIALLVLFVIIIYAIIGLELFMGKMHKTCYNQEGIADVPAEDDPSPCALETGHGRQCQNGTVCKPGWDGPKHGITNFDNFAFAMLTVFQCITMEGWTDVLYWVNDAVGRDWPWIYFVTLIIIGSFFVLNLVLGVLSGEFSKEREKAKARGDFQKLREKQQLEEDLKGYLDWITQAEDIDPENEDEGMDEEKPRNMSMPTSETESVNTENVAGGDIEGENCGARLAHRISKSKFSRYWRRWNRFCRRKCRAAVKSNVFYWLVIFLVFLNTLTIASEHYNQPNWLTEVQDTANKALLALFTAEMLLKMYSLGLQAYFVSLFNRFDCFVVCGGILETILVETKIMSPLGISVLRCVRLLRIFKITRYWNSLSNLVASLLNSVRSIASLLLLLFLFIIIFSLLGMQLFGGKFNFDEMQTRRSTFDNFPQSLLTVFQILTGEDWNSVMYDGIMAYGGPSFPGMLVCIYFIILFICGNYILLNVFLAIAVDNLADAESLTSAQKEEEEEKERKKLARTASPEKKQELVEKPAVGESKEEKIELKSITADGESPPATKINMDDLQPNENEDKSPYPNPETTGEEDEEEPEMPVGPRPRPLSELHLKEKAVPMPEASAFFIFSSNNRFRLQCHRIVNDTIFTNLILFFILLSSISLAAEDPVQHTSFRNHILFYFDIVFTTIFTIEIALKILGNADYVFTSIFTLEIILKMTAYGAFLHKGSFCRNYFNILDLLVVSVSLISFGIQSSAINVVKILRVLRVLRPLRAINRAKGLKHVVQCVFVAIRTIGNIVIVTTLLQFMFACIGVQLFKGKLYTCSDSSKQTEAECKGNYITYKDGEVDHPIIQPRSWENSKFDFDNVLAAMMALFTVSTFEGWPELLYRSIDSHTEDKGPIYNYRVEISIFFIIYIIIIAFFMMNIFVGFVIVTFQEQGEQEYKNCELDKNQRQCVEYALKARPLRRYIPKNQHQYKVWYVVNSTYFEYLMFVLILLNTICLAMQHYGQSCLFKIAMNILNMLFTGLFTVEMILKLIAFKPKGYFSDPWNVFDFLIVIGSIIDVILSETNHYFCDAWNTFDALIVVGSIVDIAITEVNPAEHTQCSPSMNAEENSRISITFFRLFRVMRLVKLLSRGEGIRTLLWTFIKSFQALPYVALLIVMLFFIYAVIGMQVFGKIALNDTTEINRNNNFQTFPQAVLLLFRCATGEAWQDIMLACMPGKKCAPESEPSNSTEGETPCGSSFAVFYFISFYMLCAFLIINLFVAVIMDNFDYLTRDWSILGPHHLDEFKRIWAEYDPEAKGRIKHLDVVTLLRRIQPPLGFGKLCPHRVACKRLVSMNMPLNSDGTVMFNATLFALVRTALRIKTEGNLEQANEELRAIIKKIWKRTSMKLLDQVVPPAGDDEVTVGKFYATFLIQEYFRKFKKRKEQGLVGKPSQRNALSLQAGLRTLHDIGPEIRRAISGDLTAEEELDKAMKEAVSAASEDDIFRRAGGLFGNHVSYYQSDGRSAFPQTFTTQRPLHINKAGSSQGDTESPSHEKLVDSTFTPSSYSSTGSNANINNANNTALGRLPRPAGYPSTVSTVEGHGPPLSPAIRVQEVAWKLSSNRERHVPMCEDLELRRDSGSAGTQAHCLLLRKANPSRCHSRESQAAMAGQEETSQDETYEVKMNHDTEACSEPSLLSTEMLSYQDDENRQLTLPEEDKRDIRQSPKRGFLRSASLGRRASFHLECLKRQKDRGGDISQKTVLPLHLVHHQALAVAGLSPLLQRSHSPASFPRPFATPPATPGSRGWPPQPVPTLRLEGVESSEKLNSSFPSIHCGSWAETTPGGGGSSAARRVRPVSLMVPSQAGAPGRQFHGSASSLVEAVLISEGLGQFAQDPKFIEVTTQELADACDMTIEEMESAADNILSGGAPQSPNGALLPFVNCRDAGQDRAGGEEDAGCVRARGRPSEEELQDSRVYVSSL

TXK = molecular target: T1, TXK (Homo sapiens, UniProt P42681); test: Inhibition of human full length GST-tagged TXK expressed in baculovirus at 1 uM by Z'-LYTE assay
T1 sequence (P42681 whole entry): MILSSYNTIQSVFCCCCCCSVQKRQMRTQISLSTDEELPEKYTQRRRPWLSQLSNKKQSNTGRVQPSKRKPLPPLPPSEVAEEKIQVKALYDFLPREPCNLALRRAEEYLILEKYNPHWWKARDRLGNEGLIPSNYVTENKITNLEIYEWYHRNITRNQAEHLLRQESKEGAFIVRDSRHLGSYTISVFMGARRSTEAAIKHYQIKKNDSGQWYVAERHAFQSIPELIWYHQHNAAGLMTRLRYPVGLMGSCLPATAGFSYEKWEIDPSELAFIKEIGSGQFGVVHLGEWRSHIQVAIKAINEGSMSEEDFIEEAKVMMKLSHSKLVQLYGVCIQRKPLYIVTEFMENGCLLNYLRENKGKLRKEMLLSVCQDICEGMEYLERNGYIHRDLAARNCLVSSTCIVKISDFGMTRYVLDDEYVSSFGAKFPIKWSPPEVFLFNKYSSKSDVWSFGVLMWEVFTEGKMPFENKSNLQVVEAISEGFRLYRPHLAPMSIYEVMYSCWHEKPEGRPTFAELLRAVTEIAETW

physchem = conditions: buffer, pH 7.4
[5] = Aqueous solubility of the compound in 0.1 N HCl; type: physicochemical; conditions: buffer
Rattus norvegicus [6] = test: Antiinflammatory activity in po dosed Lewis rat collagen-induced arthritis model assessed as reduction in ankle thickness administered bid for 16 days; type: functional, organism-based
[7] = Clearance in human hepatocytes at 1 uM incubated up to 60 mins by LC-MS/MS method; type: ADME, cell-based, Hepatocyte
Rattus norvegicus [8] = test: Antiinflammatory activity in Lewis rat collagen-induced arthritis model assessed as reduction in ankle diameter AUC at 2 mg/kg, po administered bid for 16 days relative to control; type: functional; conditions: 384 h

inhibition at 1 µM (EGFR): -7% | inhibition at 1 µM (TXK): 4% | logD (physchem): 1.6 | solubility [5]: 35.9 mg/mL (≈ 54 mM) | CLhep predicted at 1 µM [7]: 7.6 mL/min/kg
Compound: C[C@H]1CN(C2COC2)CCN1c1ccc(Nc2cc(-c3ccnc(N4CCn5c(cc6c5CC(C)(C)C6)C4=O)c3CO)cn(C)c2=O)nc1 [FENEBRUTINIB]
Time (Rattus norvegicus [1]): 12 h | Time (Rattus norvegicus [2]): 12 h | inhibition in vivo at 0.5 mg/kg (Rattus norvegicus [3]): 79% | Activity (Rattus norvegicus [4]): Active | inhibition at 1 µM (Cav1.2): 1.5% | Activity (Rattus norvegicus [6]): Dose-dependent effect | inhibition in vivo at 2 mg/kg (Rattus norvegicus [8]): 96%
